Laboratory results taken from patent US20090093501A1, “Heterocyclic antiviral compounds” (Roche Palo Alto LLC, priority 2007, published 2009).

Key:
CCR5 = target: T1, CCR5 (Homo sapiens, UniProt P51681); assay: CCR5-mediated cell-cell fusion (CCF) assay; assay type: cell-based; details: Hela-R5 cells co-cultured with CEM-NKr-CCR5-Luc cells, 24 hrs, luciferase readout
T1 construct: host or cells: CEM-NKr-CCR5-Luc cells, co-cultured with Hela-R5 cells expressing gp160 and HIV-1 Tat
Protocol: CCF assay was performed as described before (C. Ji, J. Zhang, N. Cammack and S. Sankuratri, J. Biomol. Screen. 2006 11(6):652-663). Hela-R5 cells (express gp160 from R5-tropic virus and HIV-1 Tat) were plated in 384 well white culture plates (BD Bioscience, Palo Alto, Calif.) at 7.5×10^3 cells per well in phenol red-free Dulbecco's Modified Eagle Medium (DMEM) supplemented with 10% FBS, 1× Pen-Strep, 300 μg/mL G418, 100 μg/mL hygromycin, and 1 μg/mL Doxycycline (Dox) (BD Bioscience, Palo Alto, Calif.), using Multimek (Beckman, Fullerton, Calif.) and incubated at 37° C. overnight to induce the expression of gp160. Ten μL diluted compounds in medium containing 5% DMSO were added to the cells, followed by the addition of CEM-NKr-CCR5-Luc (obtained from NIH AIDS Research & Reference Reagents Program) that expresses CD4 and CCR5 and carries a […] long terminal repeat (LTR)-driven luciferase reporter gene at 1.5×10^4 cells/15 μL/well and incubated for 24 hrs. At the end of co-culture, 15 μL of Steady-Glo luciferase substrate was added into each well, and the cultures were sealed and gently shaken for 45 min. The luciferase activity were measured for 10 sec per well as luminescence by using 16-channel TopCount NXT (PerkinElmer, Shelton, Conn.) with 10 min dark adaptation and the readout is count per second (CPS). For the drug interaction experiments, small molecule compounds or antibodies were serially diluted in serum-free and phenol red-free RPMI containing 5% DMSO (CalBiochem, La Jolla, Calif.) and 1× Pen-Strep5 μL each of the two diluted compound or mAb to be tested for drug-drug interactions were added to the Hela-R5 cells right before the addition of target cells. Representative results are compiled in TABLE II

T1 sequence (P51681 whole entry, the tested form may be a part): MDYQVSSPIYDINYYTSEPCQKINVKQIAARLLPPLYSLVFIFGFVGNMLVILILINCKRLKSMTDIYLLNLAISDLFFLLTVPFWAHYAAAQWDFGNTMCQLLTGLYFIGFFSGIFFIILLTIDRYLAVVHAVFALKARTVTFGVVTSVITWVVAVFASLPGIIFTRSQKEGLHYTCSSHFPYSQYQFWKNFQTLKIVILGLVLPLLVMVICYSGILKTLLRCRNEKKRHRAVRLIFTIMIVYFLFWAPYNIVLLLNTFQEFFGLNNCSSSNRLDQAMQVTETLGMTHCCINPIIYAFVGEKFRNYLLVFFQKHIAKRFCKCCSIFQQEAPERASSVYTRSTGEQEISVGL

SMILES: CCCCC1C(=O)N(CC2CCOCC2)CCC12CCN(C1(C)CCN(C(=O)c3c(C)ncnc3C)CC1)CC2 (stereo not shown) [I-3, 1-Butyl-9-[1-(4,6-dimethyl-pyrimidine-5-carbonyl)-4-methyl-piperidin-4-yl]-3-(tetrahydro-pyran-4-ylmethyl)-3,9-diaza-spiro[5.5]undecan-2-one]
- IC50 (CCR5): 9.5 nM

SMILES: CCCCC1CN(S(=O)(=O)C2CCN(C(C)=O)CC2)CCC12CCN(C1(C)CCN(C(=O)c3c(C)ncnc3C)CC1)CC2 (stereo not shown) [I-25]
- IC50 (CCR5): 9.8 nM
- melting point: 113 to 120 °C

SMILES: CCCCC1C(=O)N(CC2CCN(C(=O)OC)CC2)CCC12CCN(C1(C)CCN(C(=O)c3c(C)ncnc3C)CC1)CC2 (stereo not shown) [I-19, 4-{1-Butyl-9-[1-(4,6-dimethyl-pyrimidine-5-carbonyl)-4-methyl-piperidin-4-yl]-2-oxo-3,9-diaza-spiro[5.5]undec-3-ylmethyl}-piperidine-1-carboxylic acid methyl ester]
- IC50 (CCR5): 7.8 nM
